Laboratory results from patent US7332612B2 (Teva Pharmaceutical Industries Ltd., priority 2001, dated 2008).

Description: To obtain Form II in high chemical purity the starting material should also be chemically pure.

CCCCc1nc(Cl)c(CO)n1Cc1ccc(-c2ccccc2-c2nnn[nH]2)cc1.[K] [losartan potassium]
solubility in methanol (methanol, complete dissolution at room temperature): highly soluble | solubility in xylene (xylene, either crystalline or amorphous): low solubility
